Patent US20080027001A1, “NOGO RECEPTOR FUNCTIONAL MOTIFS, PEPTIDE MIMETICS, AND MUTATED FUNCTIONAL MOTIFS RELATED THERETO, AND METHODS OF USING THE SAME” (priority 2006, published 2008)
Substitutions are numbered along the chain they refer to. Values joined by “and” are separate entries in the source; they are usually repeats but may differ in a detail not shown here. Equal entries are not always repeated.

Legend:
[1] = test system: NgR1 expressed in CHO cells (Nogo66-AP binding); assay: Neuraminidase treatment, Nogo66-AP binding to NgR1-expressing CHO cells; conditions: highest concentration of neuraminidase; Nogo66-AP 10 μg/ml
Protocol: (§1) Chinese hamster ovary (CHO) parental cells and NgR1 stable cells were seeded at 30,000 cells per well in 96-well plates the night before the assay. Various concentrations of Vibrio cholera neuraminidase (Roche Applied Science, Indianapolis, Ind.) in growth medium (Dulbecco's modified Eagle medium containing 10% fetal bovine serum) were incubated with cells for an hour at 37° C. Medium was replaced with affinity-purified MAG-AP or Nogo66-AP in HBSS supplemented with 1% fetal bovine serum and […] of HEPES and incubated at room temperature for 90 min. Cells were then washed four times with supplemented HBSS. AltoPhos (0.6 mg/ml) (Promega, Madison Wis.) was added for indication of bound ligands. After a 30 minute incubation at RT, the plates were read at […] wavelength of 400 nm/505 nm with FLEXSTATION® 11384.
(§2) In neurons, soluble MAG binds to the NgR1 and NgR2 in a sialic acid-dependent manner (Venkatesh et al. (2005) supra). In the present study, the neuraminidase sensitivity of MAG binding to the NgR1 expressed in CHO cells was confirmed.

[2] = test system: NgR1 expressed in CHO cells (MAG-AP binding); assay: Neuraminidase treatment, MAG-AP binding to NgR1-expressing CHO cells; conditions: MAG-AP 2.5-20 μg/ml; CHO cells treated with neuraminidase
Protocol: as §1, §2

cerebellar neurons = assay: Neurite outgrowth assay, inhibition by soluble MAG-Fc; assay type: cell-based, rat; conditions: MAG-Fc 20 μg/ml, increasing peptide concentrations (FIG. 6E)
Protocol: Cerebellar neurons isolated from postnatal day ⅔ rat pups were cultured over monolayers of 3T3 cells (Doherty et al. (1991) Neuron 6(2):247-58) essentially as previously described (Williams et al. (1994) Neuron 13(3):583-94). Monolayers were established by seeding ˜80,000 cells into individual chambers of an eight-chamber tissue culture slide coated with poly-L-lysine and fibronectin. The cell lines, and monolayers, were maintained in Dulbecco's modified Eagle's medium supplemented with 10% fetal calf serum (FCS). Cocultures were established by removing the media from the monolayers and seeding ˜6000 dissociated cerebellar neurons into each well in SATO medium (modified from Doherty et al. (1990) Neuron 5(2):209-19; Dulbecco's modified Eagle's medium supplemented with 2% FBS, 33% bovine albumin, 0.62 μg/ml progesterone, 161 μg/ml putrescine, 4 μg/ml L-thyroxine, 0.387 μg/ml selenium, and 3.37 μg/ml tri-iodo-thyronine (components from Sigma-Aldrich, St. Louis, Mo.)). Monolayers were established for 24 hours prior to addition of the neurons and the cultures were maintained for ˜23-27 hr. Following careful fixation with 4% paraformaldehyde, the neurons were stained with a GAP-43 antibody, and the mean length of the longest neurite per cell was measured for ˜120-150 neurons, again as previously described (Williams et al. (1994) supra). For neurite outgrowth on substrate-bound MAG, 96-well plates were coated with a thin layer of nitrocellulose (Bio-Rad, Hercules, Calif.) before incubating with 1 μg/ml of MAG(d1-5) (a chimeric construct containing domains 1-5 of the extracellular portion of MAG) at 4° C. overnight. Wells were subsequently coated with 17 μg/ml of poly-D-lysine (Sigma, St. Louis, Mo.), followed by incubation in Dulbecco's modified Eagle's medium containing 10% FCS. Cerebellar granule neurons were dissociated and seeded at a density of 10^4 cells per well. Cells were cultured for 18-20 h before being fixed with 4% paraformaldehyde and stained with a neuronal-specific anti-III-tubulin antibody, Tuj 1 (Covance, Emeryville, Calif.). The average of total neurite lengths from each neuron was measured automatically by the MetaXpress Neurite Outgrowth module (Molecular Devices, Sunnyvale, Calif.) from at least 200 neurons per well, in triplicate wells per experiment. Results were repeated independently more than three times.
Synthetic peptides were all obtained from a commercial supplier (Multiple Peptide Systems, San Diego, Calif.). All peptides were purified to the highest grade by reverse-phase HPLC and obtained at the highest level of purity (>97%). With all peptides, there was no indication of higher molecular weight species. Where peptide sequences are underlined, this denotes a peptide that has been cyclized via a disulfide bond between the given cysteine residues. All peptides were acetylated (e.g., denoted with “N-Ac-”) and amide blocked (e.g., denoted with “—NH2”). Recombinant MAG-Fc chimera was obtained from R&D Systems (Minneapolis, Minn.) and used at final concentrations ranging from 5-25 μg/ml. The monoclonal antibody to GT1b (clone GMR5) was obtained from Seikagaku America (Falmouth, Mass.) and was used at a final concentration of 20 μg/ml. All reagents were diluted into the coculture media and, in general, added to the cultures just prior to the plating of the neurons. GT1b and GM1 were obtained as gifts from Dr. Gino Toffano (Libero, Italy) and University of Milan, and asialo-GM1 was obtained from Sigma (St. Louis, Mo.). The recombinant NgR1(310)-fc and MAG(d1-5) chimeras were expressed and purified in-house. Pharmacological reagents were obtained from Calbiochem (La Jolla, Calif.) and/or Sigma. For reagents used in cell-surface NgR binding assays, please see Examples 1.5 and 1.7. For reagents used in the cell surface p75NTR-NgR-AP binding assay, please see Example 1.13.
In contrast, a soluble MAG-Fc chimera inhibits neurite outgrowth in a manner that depends upon both ganglioside and NgR function. […]

[3] = test system: cerebellar granule neurons; assay: Neurite outgrowth on substrate-bound MAG; assay type: cell-based, rat; conditions: tested at up to 200 μg/ml (FIG. 6F)
Protocol: Cerebellar neurons isolated from postnatal day ⅔ rat pups were cultured over monolayers of 3T3 cells (Doherty et al. (1991) Neuron 6(2):247-58) essentially as previously described (Williams et al. (1994) Neuron 13(3):583-94). Monolayers were established by seeding ˜80,000 cells into individual chambers of an eight-chamber tissue culture slide coated with poly-L-lysine and fibronectin. The cell lines, and monolayers, were maintained in Dulbecco's modified Eagle's medium supplemented with 10% fetal calf serum (FCS). […] Following careful fixation with 4% paraformaldehyde, the neurons were stained with a GAP-43 antibody, and the mean length of the longest neurite per cell was measured for ˜120-150 neurons, again as previously described (Williams et al. (1994) supra). […] The average of total neurite lengths from each neuron was measured automatically by the MetaXpress Neurite Outgrowth module (Molecular Devices, Sunnyvale, Calif.) from at least 200 neurons per well, in triplicate wells per experiment. […]

NgR1(310)-fc = target: T1, NgR1(310)-fc (Homo sapiens, UniProt Q9BZR6); assay: Analytical ultracentrifugation (sedimentation velocity), wild type receptor; assay type: binding; conditions: ganglioside 0 to 48 μM (FIG. 3A-C)
T1 construct: made in house; host or cells: mammalian expression vector (pSMED2)
Excerpt: (§3) Human Nogo Receptor 1 (NgR1)(310)-fc point mutants (FRG-1 (R151E); FRG-2 (R279E); FRG-3 (R199E), and FRG-4 (R151E/R279E/R199E)) were constructed by Genewiz (North Brunswick, N.J.) using their site-directed mutagenesis technology. The template used to construct all the described mutants was wild type human NgR1(310)-fc (SEQ ID NO:59), which was generated by fusing a nucleotide sequence corresponding to the first 310 amino acid of Human Nogo Receptor 1 to a human Fc fragment in a mammalian expression vector (the sequence of wild type NgR1(310)-fc and the expression vector is set forth in SEQ ID NO:60 and a schematic of the expression vector is shown in FIG. 11). […]
(§4) Sedimentation velocity experiments were performed on a Beckman XLI/XLA analytical ultracentrifuge. […] Scans were recorded at 20° C. with a rotor speed of 35,000 rpm, and the signal was detected at 230 nm with a spacing of 0.006 in the continuous mode. Sedimentation profiles were analyzed by the program Sedfit (Schuck (2000) Biophys. J. 78:1606-19) to obtain the sedimentation coefficient distributions. The solvent density (1.006) and partial specific volume (0.72) were calculated using the program Sednterp (Laue et al. (1992) Analytical Ultracentrifugation in Biochemistry and Polymer Science (Harding, S. E., Towe, A. J. and Horton, J. C., eds.) pp. 90-125, Royal Society of Chemistry, Cambridge, U.K). […]

NgR1(310)-fc R151E = target: T2, NgR1(310)-fc R151E (Homo sapiens, UniProt Q9BZR6, R151E); assay: Analytical ultracentrifugation, R151E mutant receptor; assay type: binding
T2 construct: made in house; host or cells: mammalian expression vector
T2 sequence (Q9BZR6 27-310 R151E): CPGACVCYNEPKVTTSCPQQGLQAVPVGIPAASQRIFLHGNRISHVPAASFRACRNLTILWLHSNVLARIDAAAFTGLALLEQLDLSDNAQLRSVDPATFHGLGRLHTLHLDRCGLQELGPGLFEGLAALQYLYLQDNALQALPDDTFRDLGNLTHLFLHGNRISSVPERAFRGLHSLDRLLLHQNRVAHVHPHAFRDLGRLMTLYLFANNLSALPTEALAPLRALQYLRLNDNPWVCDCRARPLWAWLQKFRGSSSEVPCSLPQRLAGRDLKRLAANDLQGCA
Excerpt: as §3, §4

[4] = test system: anti-hNgR AF 1208 antibody; assay: Analytical ultracentrifugation, specificity control; assay type: binding; conditions: 22 mM GT1b (data not shown)
Protocol: Sedimentation velocity experiments were performed on a Beckman XLI/XLA analytical ultracentrifuge. Wild type NgR(310)-fc (0.21 μM to 0.38 μM final) was added to ganglioside at concentrations increasing from 0 to 48 μM. Mutant protein used in the sedimentation velocity experiments corresponded to the column fraction of greatest purity based on SDS gel analysis. […] The solution (400 μL) was loaded into two-channel (1.2 cm path length) carbon-Epon centerpieces in an An-50-Ti rotor. Scans were recorded at 20° C. with a rotor speed of 35,000 rpm, and the signal was detected at 230 nm with a spacing of 0.006 in the continuous mode. Sedimentation profiles were analyzed by the program Sedfit (Schuck (2000) Biophys. J. 78:1606-19) to obtain the sedimentation coefficient distributions. The solvent density (1.006) and partial specific volume (0.72) were calculated using the program Sednterp (Laue et al. (1992) Analytical Ultracentrifugation in Biochemistry and Polymer Science (Harding, S. E., Towe, A. J. and Horton, J. C., eds.) pp. 90-125, Royal Society of Chemistry, Cambridge, U.K).
The peptide competition studies, together with the direct binding assays, have implicated the FRG motif within loop 2 as being important for MAG function. […]

NgR1(310)-fc R199E = target: T3, NgR1(310)-fc R199E (Homo sapiens, UniProt Q9BZR6, R199E); assay: Analytical ultracentrifugation, R199E mutant receptor; assay type: binding
T3 construct: made in house; host or cells: mammalian expression vector
Excerpt: as §3, §4

NgR1(310)-fc R279E = target: T4, NgR1(310)-fc R279E (Homo sapiens, UniProt Q9BZR6, R279E); assay: Analytical ultracentrifugation, R279E mutant receptor; assay type: binding
T4 construct: made in house; host or cells: mammalian expression vector
T4 sequence (Q9BZR6 27-310 R279E): T2 sequence (Q9BZR6 27-310 R151E) with E125R, R253E
Excerpt: as §3, §4

T3 sequence (Q9BZR6 27-310 R199E): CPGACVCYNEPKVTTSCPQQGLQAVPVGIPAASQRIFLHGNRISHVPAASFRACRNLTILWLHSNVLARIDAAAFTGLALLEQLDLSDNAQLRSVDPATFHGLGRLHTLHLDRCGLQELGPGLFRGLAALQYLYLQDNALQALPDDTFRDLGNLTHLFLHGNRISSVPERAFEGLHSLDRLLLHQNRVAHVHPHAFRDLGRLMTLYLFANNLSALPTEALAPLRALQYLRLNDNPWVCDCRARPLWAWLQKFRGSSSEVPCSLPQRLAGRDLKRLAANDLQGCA
T1 sequence (Q9BZR6 with tags, fused parts or gaps limits assumed): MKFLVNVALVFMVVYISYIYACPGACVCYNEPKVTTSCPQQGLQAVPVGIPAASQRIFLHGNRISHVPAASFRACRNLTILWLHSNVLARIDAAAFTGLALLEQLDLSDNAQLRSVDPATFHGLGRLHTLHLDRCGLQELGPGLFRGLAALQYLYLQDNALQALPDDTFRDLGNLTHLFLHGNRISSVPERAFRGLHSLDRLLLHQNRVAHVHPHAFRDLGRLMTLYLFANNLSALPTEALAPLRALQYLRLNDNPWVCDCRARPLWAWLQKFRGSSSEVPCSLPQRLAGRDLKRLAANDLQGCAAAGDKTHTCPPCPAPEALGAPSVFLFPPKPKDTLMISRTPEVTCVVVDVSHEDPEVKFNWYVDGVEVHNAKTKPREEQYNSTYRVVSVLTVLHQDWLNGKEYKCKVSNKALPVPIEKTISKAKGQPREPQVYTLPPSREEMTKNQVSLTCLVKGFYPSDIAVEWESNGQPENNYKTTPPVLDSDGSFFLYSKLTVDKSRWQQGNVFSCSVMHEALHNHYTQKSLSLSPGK

neuraminidase: Vibrio cholera neuraminidase (Roche Applied Science)
effect on Nogo66-AP binding to NgR1 [1]: completely unaffected
inhibition of specific binding of MAG-AP to NgR1-expressing cells [2]: 55%

N-Ac-c[sGrfkq]-NH2 (XGXXXX; not fully specified; cyclised or stapled) [hriNRL2]
efficacy in inhibiting the MAG response (cerebellar neurons): retain full efficacy
effect on suppressed neurite outgrowth on MAG substrate [3]: no significant effect

GT1b
interaction with NgR1(310)-fc (shift of sedimentation coefficient) (NgR1(310)-fc): additional peaks with higher sedimentation coefficients appear in a dose-dependent manner
reduction of GT1b/NgR1 complex formation (NgR1(310)-fc R151E; R151 mutated): ~50%
GT1b binding relative to wild type (NgR1(310)-fc R151E; mutation of arginine 151, GT1b 22 μM): 49%
effect on sedimentation of control antibody [4]: No effect
reduction of GT1b/NgR1 complex formation (NgR1(310)-fc R199E; R199 mutated): ~70%
GT1b binding relative to wild type / residual complex formation (NgR1(310)-fc R199E; mutation of arginine 199, GT1b 22 μM): ~30% and 33%
reduction of GT1b/NgR1 complex formation (NgR1(310)-fc R279E; R279 mutated): ~50%
GT1b binding relative to wild type NgR (NgR1(310)-fc R279E; mutation of arginine 279, GT1b 22 μM, ratio of ~6.7 S and ~11 S peaks): approximately 56%
